According to US7906510B2, “Amide derivative and pharmaceutical composition containing the same” (Dainippon Sumito Pharma Co., Ltd., priority 2008, dated 2011):
Counter-ions that a name gives are not always drawn. Like-named read-outs stand apart in the source and are kept apart here.

What was measured:
5-HT4 receptor = biological target: T1, 5-HT4 receptor (Cavia porcellus, UniProt O70528); assay: Serotonin 4 (5-HT4) receptor binding assay; design: species or system guinea pig
T1 construct: the mixture was suspended to give receptor membrane preparations; from tissue; host or cells: guinea pig (Slc-Hartley) brain striatum membranes
Method: 5-HT4 receptor binding assay and preparations of receptor membrane preparations were carried out according to a method of Grossman et al. [see British J. Pharmacol., (1993) 109, 618].
Slc-Hartley guinea pigs (body weight 300 to 400 g) were decapitated to remove brain rapidly, and striatum was isolated. To the obtained tissues were added fifteenfold of Hepes buffer (50 mM, pH7.4, 4° C.), and the mixture was homogenized by Teflon® homogenizer and centrifuged at 48,000×g (4° C.) for 15 minutes. To the resulting precipitate was added Hepes buffer (1 ml) to 30 mg by wet weight of tissues, and the mixture was suspended to give receptor membrane preparations.
0.1 nM [^3H]-GR113808 {chemical name: [1-[2-(methylsulfonylamino)ethyl]-4-piperidinyl]methyl 1-methylindole-3-carboxylate}, receptor membrane preparations, and Hepes buffer (50 mM, pH7.4, 4° C., 1 ml) containing test compounds or 30 μM serotonin were placed in an assay tube, and incubated at 37° C. for 30 minutes. On quenching the reaction, the mixture was rapidly filtered on whatman GF/B filter, which was presoaked in 0.1% polyethyleneimine for 1 hour, by using Brandel cell Harvester, and washed with ice-cooled 50 mM Tris-HCl (pH7.7, 4 ml) three times. To the filter after filtration was added ACS II scintillator, and then a radioactivity was determined by a liquid scintillation counter.
50% inhibition concentrations (IC50) were determined from inhibition rates of test compounds to specific bindings which were obtained by subtracting nonspecific bindings from total binding amounts of [^3H]-GR113808.

Male Slc-ddy mice = assay: Mouse defecation assay; type: in vivo; design: key: −: No Effect; +: Moderately Improved (p<0.05); ++: Significantly Improved (p<0.01); settings: 3 mg/kg orally; stool weight 30, 60 and 120 minutes after administration; Dunnett assay vs control
Method: Male Slc-ddy mice (body weight 25 to 30 g) were used and allowed to ingest food and water ad libitum until commencement of experiments.
A group of 25 mice was divided into 5 groups, which 5 mice each per group were respectively transferred to fasting cages to adjust to new environments for about 1 hour. Then, each mouse was orally administered 3 mg/kg suspension of a test compound in 0.5% tragacanth solution to measure each stool weight of each group 30, 60, and 120 minutes after oral administration.
Efficacies were evaluated by Dunnett assay between test compounds and control.

[1] = inhibition of specific binding of 0.1 nM [3H]-GR113808, guinea pig striatum membrane preparations, 37° C., 30 minutes, read-out: IC50

T1 sequence (O70528 whole entry): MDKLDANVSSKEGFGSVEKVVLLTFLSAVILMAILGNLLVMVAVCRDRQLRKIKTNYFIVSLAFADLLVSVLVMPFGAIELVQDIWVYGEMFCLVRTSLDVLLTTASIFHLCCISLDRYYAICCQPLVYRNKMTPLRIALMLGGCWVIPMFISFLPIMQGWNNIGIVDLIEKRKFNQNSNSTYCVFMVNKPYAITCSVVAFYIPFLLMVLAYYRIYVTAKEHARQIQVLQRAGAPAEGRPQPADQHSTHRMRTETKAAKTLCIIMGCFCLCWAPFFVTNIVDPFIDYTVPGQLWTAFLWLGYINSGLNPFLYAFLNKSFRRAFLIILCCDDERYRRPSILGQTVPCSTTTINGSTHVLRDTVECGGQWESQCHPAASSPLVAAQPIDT

SMILES	IC50 (5-HT4 receptor; [1]) [nM]	Effect (Male Slc-ddy mice)	IC50 (5-HT4 receptor) [nM]
C=CCCCCC(=O)N1CCC(CN2CCOC(CNC(=O)c3cc(Cl)c(N)cc3OCC)C2)CC1 (racemic) [Example 162]	7.9		
C=CC=CC(=O)N1CCC(CN2CCOC(CNC(=O)c3cc(Cl)c(N)cc3OCC)C2)CC1 (racemic) [Example 163]	6.58		
C=CCCC=CC(=O)N1CCC(CN2CCOC(CNC(=O)c3cc(Cl)c(N)cc3OCC)C2)CC1 (racemic) [Example 164]	7.5		
CCOc1cc(N)c(Cl)cc1C(=O)NC[C@H]1CN(CC2CCN(C(=O)NC)CC2)CCO1 [Example 47]	8.04		
COc1cc(N)c(Cl)cc1C(=O)NC[C@H]1CN(CC2CCN(C(=O)Nc3ccccc3)CC2)CCO1 [Example 52]	1.94	−	
COc1ccccc1NC(=O)N1CCC(CN2CCO[C@@H](CNC(=O)c3cc(Cl)c(N)cc3OC)C2)CC1 [Example 53]	1.46		
COc1cc(N)c(Cl)cc1C(=O)NC[C@H]1CN(CC2CCN(C(=O)Nc3cccc(C(F)(F)F)c3)CC2)CCO1 [Example 54]	5.91	+	
COc1cc(N)c(Cl)cc1C(=O)NC[C@H]1CN(CC2CCN(C(=O)Nc3cccc(C(C)=O)c3)CC2)CCO1 [Example 56]	2.9		
COc1cc(N)c(Cl)cc1C(=O)NC[C@H]1CN(CC2CCN(C(=O)Nc3cc(C)cc(C)c3)CC2)CCO1 [Example 57]	1.82		
COc1cc(N)c(Cl)cc1C(=O)NC[C@H]1CN(CC2CCN(C(=O)Nc3ccc(Cl)c(Cl)c3)CC2)CCO1 [Example 58]	1.97	+	
COc1cc(N)c(Cl)cc1C(=O)NC[C@H]1CN(CC2CCN(C(=O)NCc3ccccc3)CC2)CCO1 [Example 59]	2.83		
COc1cc(N)c(Cl)cc1C(=O)NC[C@H]1CN(CC2CCN(C(=O)NCc3ccccc3C)CC2)CCO1 [Example 60]	1.86		
COc1ccc(CNC(=O)N2CCC(CN3CCO[C@@H](CNC(=O)c4cc(Cl)c(N)cc4OC)C3)CC2)cc1 [Example 61]	3.7		
COc1cc(N)c(Cl)cc1C(=O)NC[C@H]1CN(CC2CCN(C(=O)NCc3ccc(Cl)cc3Cl)CC2)CCO1 [Example 62]	2.51		
COc1cc(N)c(Cl)cc1C(=O)NC[C@H]1CN(CC2CCN(C(=O)NCCc3ccccc3)CC2)CCO1 [Example 63]	8.6		
COc1cc(N)c(Cl)cc1C(=O)NC[C@H]1CN(CC2CCN(C(=O)N(C(C)C)C(C)C)CC2)CCO1.Cl [Example 88]		++	
COc1cc(N)c(Cl)cc1C(=O)NC[C@H]1CN(CC2CCN(C(=O)N3CCCC3)CC2)CCO1 [Example 89]	7.33	+	
CCOc1cc(N)c(Cl)cc1C(=O)NCC1CN(CC2CCN(C(=O)N3CCCC3)CC2)CCO1 (stereo not drawn) [Example 90, 4-amino-5-chloro-2-ethoxy-N-[{4-[(1-(1-pyrrolidinecarbonyl)-4-piperidinyl)-methyl]-2-morpholinyl}methyl]benzamide 1.5 fumarate]	6.98		
CCCOC(=O)N1CCC(CN2CCO[C@@H](CNC(=O)c3cc(Cl)c(N)cc3OC)C2)CC1 [Example 98]	9.62		
COc1cc(N)c(Cl)cc1C(=O)NC[C@H]1CN(CC2CCN(C(=O)OCC(C)C)CC2)CCO1 [Example 102]	6.79		
COc1cc(N)c(Cl)cc1C(=O)NC[C@H]1CN(CC2CCN(C(=O)Oc3ccccc3)CC2)CCO1 [Example 106]			6.12
COc1ccccc1OC(=O)N1CCC(CN2CCO[C@@H](CNC(=O)c3cc(Cl)c(N)cc3OC)C2)CC1 [Example 107]			3.43
CCOc1cc(N)c(Cl)cc1C(=O)NCC1CN(CC2CCN(C(=O)c3ccccc3)CC2)CCO1 (stereo not drawn) [Example 112]	3.01		
COc1cc(N)c(Cl)cc1C(=O)NC[C@H]1CN(CC2CCN(C(=O)c3cccc(F)c3)CC2)CCO1 [Example 113]	2.23		
CCOc1cc(N)c(Cl)cc1C(=O)NCC1CN(CC2CCN(C(=O)c3cccc(F)c3)CC2)CCO1 (stereo not drawn) [Example 114]	2.22		
COc1cc(N)c(Cl)cc1C(=O)NC[C@H]1CN(CC2CCN(C(=O)c3ccc(Cl)cc3)CC2)CCO1 [Example 115]	2.48	+	
COc1cc(N)c(Cl)cc1C(=O)NC[C@H]1CN(CC2CCN(C(=O)c3cccc(Br)c3)CC2)CCO1 [Example 117]	0.04		
COc1cc(N)c(Cl)cc1C(=O)NC[C@H]1CN(CC2CCN(C(=O)c3ccccc3C)CC2)CCO1 [Example 118]	1.7		

SMILES	IC50 (5-HT4 receptor; [1]) [nM]	Effect (Male Slc-ddy mice)	IC50 (5-HT4 receptor) [nM]
COc1cc(N)c(Cl)cc1C(=O)NC[C@H]1CN(CC2CCN(C(=O)c3ccc(C)cc3)CC2)CCO1 [Example 120]	2.63		
COc1cc(N)c(Cl)cc1C(=O)NC[C@H]1CN(CC2CCN(C(=O)c3ccc(C(C)(C)C)cc3)CC2)CCO1 [Example 123]	2.11		
CCOc1cc(N)c(Cl)cc1C(=O)NC[C@H]1CN(CC2CCN(C(=O)c3ccc(OC)cc3)CC2)CCO1 [Example 126]	2.32		
COc1cc(N)c(Cl)cc1C(=O)NC[C@H]1CN(CC2CCN(C(=O)c3ccco3)CC2)CCO1 [Example 131]	6.96		
Nc1c(Cl)cc(C(=O)NCC2CN(CC3CCN(C(=O)N4CCCC4)CC3)CCO2)c2c1CCO2 (stereo not drawn) [Example 134]	1.5		
CN(C)C(=O)N1CCC(CN2CCO[C@@H](CNC(=O)c3cc(Cl)c(N)c4c3OCC4)C2)CC1 [Example 136]	4.26		
COC(=O)N1CCC(CN2CCOC(CNC(=O)c3cc(Cl)c(N)c4c3OCC4)C2)CC1 (stereo not drawn) [Example 138]	2.8	++	
CS(=O)(=O)N1CCC(CN2CCOC(CNC(=O)c3cc(Cl)c(N)c4c3OCC4)C2)CC1 (stereo not drawn) [Example 140]	2.84		
CCOc1cc(N)c(Cl)cc1C(=O)NC[C@H]1CN(CC2CCN(C(=O)c3ccccc3OC(C)=O)CC2)CCO1 [Example 167]	6.36		
COc1cc(N)c(Cl)cc1C(=O)NC[C@H]1CN(CC2CCN(C(=O)c3cccc(OC(C)=O)c3)CC2)CCO1 [Example 168]	5.17		
COc1cc(N)c(Cl)cc1C(=O)NC[C@H]1CN(CC2CCN(C(=O)c3ccccc3Oc3ccccc3)CC2)CCO1 [Example 170]	5.65		
COc1cc(N)c(Cl)cc1C(=O)NC[C@H]1CN(CC2CCN(C(=O)c3cccc(N(C)C)c3)CC2)CCO1 [Example 171]	2.16		
COc1cc(N)c(Cl)cc1C(=O)NC[C@H]1CN(CC2CCN(C(=O)c3ccc(N(C)C)cc3)CC2)CCO1 [Example 172]	0.87		
COC(=O)c1ccc(C(=O)N2CCC(CN3CCO[C@@H](CNC(=O)c4cc(Cl)c(N)cc4OC)C3)CC2)cc1 [Example 174]	8.52		
COc1cc(N)c(Cl)cc1C(=O)NC[C@H]1CN(CC2CCN(C(=O)c3ccc(-c4ccccc4)cc3)CC2)CCO1 [Example 175]	6.13		
COc1cc(N)c(Cl)cc1C(=O)NC[C@H]1CN(CC2CCN(C(=O)c3ccc(N)c(Cl)c3)CC2)CCO1 [Example 176]	0.72		
COc1cc(N)c(Cl)cc1C(=O)NC[C@H]1CN(CC2CCN(C(=O)c3cccc4c3OCC4)CC2)CCO1 [Example 177]	1.62		
COc1cc(N)c(Cl)cc1C(=O)NC[C@H]1CN(CC2CCN(C(=O)c3ccc(C)s3)CC2)CCO1 [Example 178]	1.24		
COc1cc(N)c(Cl)cc1C(=O)NC[C@H]1CN(CC2CCN(C(=O)CC3CCNCC3)CC2)CCO1 [Example 194]	10.1		
COc1cc(N)c(Cl)cc1C(=O)NC[C@H]1CN(CC2CCN(C(=O)c3cccc(O)c3)CC2)CCO1 [Example 201]	4.45		
COc1cc(N)c(Cl)cc1C(=O)NC[C@H]1CN(CC2CCN(C(=O)c3ccc(O)cc3)CC2)CCO1 [Example 202]	4.52		
CCOc1cc(N)c(Cl)cc1C(=O)NC[C@H]1CN(CC2CCN(C(=O)n3ccnc3)CC2)CCO1 [Example 206, (S)-4-amino-5-chloro-2-ethoxy-N-[{4-[(1-imidazolecarbonyl-4-piperidinyl)-methyl]-2-morpholinyl}methyl]benzamide]	10.6		
COc1cc(N)c(Cl)cc1C(=O)NC[C@H]1CN(CC2CCN(C(=O)CC#N)CC2)CCO1 [Example 223]	18.6	++	
COc1cc(N)c(Cl)cc1C(=O)NC[C@H]1CN(CC2CCN(C(=O)C(C)=O)CC2)CCO1 [Example 227]	6.2	++	
COc1cc(N)c(Cl)cc1C(=O)NC[C@H]1CN(CC2CCN(C(=O)c3ccc(C#N)cc3)CC2)CCO1 [Example 230]	0.64	++	
CC(=O)N1CCC(CN2CCO[C@@H](CNC(=O)c3cc(Cl)c(N)c4c3OCC4)C2)CC1 [Example 231]	9.18	++	
Nc1c(Cl)cc(C(=O)NC[C@H]2CN(CC3CCN(C(=O)C4CCOC4)CC3)CCO2)c2c1CCO2 (stereo partly drawn) [Example 232]	7.34	++	
